From patent US12465626B2, “Traditional Chinese medicine composition with improving cognition effect, preparation method thereof and traditional Chinese medicine preparation” (Chenland Nutritionals, Inc., priority 2019, dated 2025)

Tests used:
Format in all cases: in vivo
mice [1] = assay: Novel object recognition test of mice
Experimental: Adaptation period: on the first day, the mice were placed in the test room for 1 hour of environmental adaptation and familiarity, and then placed in the open field box for 20 minutes (there was no object in the box), so as to eliminate the impact of the open field box on the tested mice. After the experiment of each mouse, the open field box was cleaned with 75% ethanol.
Familiarization period: on the second day (24 hours after the adaptation period), the mice were placed in the test room for 1 hour of environmental adaptation and familiarization, then two yellow cylindrical bottles of the same size and texture were placed at the left and right ends of the same side of the open field box as familiar objects, and then the mouse was put into the box with its back towards the objects. The mouse's exploration of the objects within 5 min was recorded (timing standard: the exploration time within 2 cm of the mouse's nose or mouth from the object, and its lying on the objects or just walking around the objects was not included). […]
Test period: 2 h after the familiarization period, replace a yellow cylindrical bottle in the open field box was replaced with a green conical bottle of the same size as a strange object, and then the mouse was put into the box with its back towards the objects. […] The recognition index (RI) was calculated: RI=Tn/(Tn+Tf). […]

mice [2] = assay: Step-down test of mice (scopolamine hydrobromide)
Experimental: (§1) Statistical methods: the data were analyzed by GraphPad Prism 7.01 software (GraphPad Software, Inc., San Diego, California, USA). Before the parameter test of all group tests, the data were tested by normality test (Kolmogorov-Smirnov test) and variance homogeneity test (Levene test). Except for the escape latency in water maze, all test parameters were compared between groups by non paired T-test (single tail), and the test level was set as p<0.05. The escape latency in water maze was compared between two groups by two-way analysis of variance. The post test was conducted by Sidak's multiple comparisons test, and the test level was set as p<0.05.
Test method: the grouping, sample preparation and modeling of mouse step-down test were the same as above. At the beginning of the test, the step-down training was carried out, where the adaptation was carried out for 3 min and then the power on training was carried out for 300 s. The test was conducted after 24 hours. The drug was administered 1 hour before the test, and scopolamine hydrobromide and normal saline were injected intraperitoneally 15-20 minutes before the test. Then the mouse was put on the platform and the latency of jumping off the platform for the first time and the number of errors (getting off the platform) within 300 s were recorded.

mice [3] = assay: Morris water maze test, directional navigation experiment; settings: max 60 s
Experimental: as §1
(§2) Implementation method: the test procedure included two parts: directional navigation and space exploration. A total of 5 consecutive days were tested. The first part was the directional navigation experiment, which was tested on mice for 4 days, and the second part was the space exploration experiment, which was tested for 1 day. The melanin edible toner was […] to hide the platform, and it was kept in sharp contrast with the color of mice during camera shooting for easy tracking. The platform was located 0.8 cm below the water surface and the water depth was 21 cm. It was located in the NW quadrant. The water temperature in the water maze was maintained at a constant temperature of 22-24° C. with a heating rod.
Directional navigation experiment: each mouse was trained 4 times a day, with an interval of 15-20 min. During the test, the water entry point was selected in a semi random way each time. The experimenter held the mouse by hand, made it face the pool wall, and gently put it into the water. In each training, if the mouse could find the platform within 60 s, and the time spent on the platform was more than 2 S, it was regarded as the sign of successful platform search. The time spent by the mice from entering the water to successful platform search was recorded as the latency. […] After the mice boarded the platform, the mice were kept on the platform for 10 s, so that they could carry out spatial learning and memory according to the reference objects of the four quadrants, and the tension of the mice were reduced. The average value of daily latency was calculated to evaluate the acquisition ability of animals' spatial memory.

mice [4] = assay: Morris water maze test, space exploration experiment; settings: exploration period
Experimental: as §1, §2
Space exploration experiment: the platform was removed and each mouse was tested once for 60 s. The SE quadrant was selected and the mouse was gently put into the water facing the edge of the pool wall. The spatial memory ability of the animal was evaluated by the number of times the animal crossed the original platform position within 60 s, the run ratio and time ratio of the original platform quadrant (i.e. the ratio of the run and time of the animal's original platform quadrant to the total run and time).

[5] = after intragastric administration

C/C=C1\[C@H]2C=C(C)C[C@]1(N)c1ccc(=O)[nH]c1C2 [Positive drug, huperzine-A]
Recognition index (x[…]SE) (mice [1]; RI=Tn/(Tn+Tf), intragastric, dose (crude drug) 1.002 g/kg (Embodiment 1, Comparative examples 1, 2), 1.200 g/kg (Comparative example 3), 0.67 tablets/kg (positive drug), model group 0.4180, control 0.5715): 0.5341 ± 0.0428 | Recognition index compared with the model group (mice [1]; [5]): increased significantly | Step-down latency compared with the model group (mice [2]; [5]): significantly longer | Step-down number of errors compared with the model group (mice [2]; [5]): significantly lower | Number of errors (x[…]SE) (mice [2]; errors within 300 s, doses as Table 3, model group 2.714, control 1.375): 1.833 ± 0.3445 | Latency/s (mice [2]; latency of jumping off the platform, max 300 s, drug 1 hour before test, doses as Table 2, model group 42.01, control 100.3): 94.12 ± 29.48 s | Escape latency First day (s) (x[…]SE) (mice [3]; first day, doses as Table 4, model group 53.2): 52.7 ± 2.29 s | Escape latency Fourth day (s) (x[…]SE) (mice [3]; fourth day, model group 47.7): 43.5 ± 2.83 s | Escape latency Second day (s) (x[…]SE) (mice [3]; second day, model group 44.2): 44.5 ± 2.80 s | Escape latency Third day (s) (x[…]SE) (mice [3]; third day, model group 42.4): 43.6 ± 2.91 s | Stay time in target quadrant/s (x[…]SE) (mice [4]; 60 s, model group 14.15, control 17.30): 15.04 ± 0.9555 s | Number of crossing platform (x[…]SE) (mice [4]; within 60 s, model group 1.308, control 3.125): 2.786 ± 0.4591 | Escape latency compared with the model group (mice [4]; [5]): significantly shorter | Number of crossing the platform compared with the model group (mice [4]; [5]): significantly higher | Escape latency/s (x[…]SE) (mice [4]; doses as Table 5, model group 39.27, control 20.05): 22.91 ± 3.922 s | Run distance of target quadrant/mm (x[…]SE) (mice [4]; model group 2373, control 2821): 2867 ± 207.6 mm
